# Data: patent US9127016B2, “Small molecule inhibitors of Dusp6 and uses therefor” (University of Pittsburgh—Of the Commonwealth System of …, priority 2009, dated 2015)
# Legend:
# Dusp6 = target: T1, Dusp6 (Homo sapiens, UniProt Q16828); assay: Basal Dusp6 dephosphorylation of OMFP; format: biochemical; set-up: His; made in house; settings: 100 μM
# T1 sequence (Q16828 1-381): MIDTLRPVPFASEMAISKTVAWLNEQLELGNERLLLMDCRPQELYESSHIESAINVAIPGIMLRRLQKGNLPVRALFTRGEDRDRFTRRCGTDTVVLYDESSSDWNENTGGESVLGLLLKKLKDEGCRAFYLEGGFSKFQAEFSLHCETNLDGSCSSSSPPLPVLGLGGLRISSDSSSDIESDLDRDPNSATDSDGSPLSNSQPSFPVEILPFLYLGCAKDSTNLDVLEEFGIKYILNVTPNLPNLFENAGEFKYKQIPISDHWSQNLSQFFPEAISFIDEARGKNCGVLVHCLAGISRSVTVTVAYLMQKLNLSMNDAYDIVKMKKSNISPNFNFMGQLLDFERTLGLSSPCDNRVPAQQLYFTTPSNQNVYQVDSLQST
# Description: For OMFP based ERK2 induced activation of Dusp6, recombinant His-tagged Dusp6 was expressed from a bacterial expression vector and 250 ng were incubated with the indicated concentrations of NSC95397 or BCI. OMFP was added at its apparent Km (100 μM) (Vogt, A. et al. J Biol Chem 280, 19078-86 (2005)). The final reaction volume was 15 μl. After 1 h at RT, OMF fluorescence was measured on an M5 multimode reader (Molecular Devices) at excitation/emission wavelengths of 485/525 nm. To assay activated Dusp6, 210 ng or 2.1 μg of recombinant ERK2 (Cell signaling) were added to Dusp6(210 ng)/BCI(100 μM) mixtures to measure activation at 1:1 and 1:10 ratio of substrate to enzyme. OMFP was immediately added and fluorescence (ex485/em525 nm) was read every 10 min for 130 min. Fold activation was calculated at 60 mins in each experiment.
# Dusp5 = assay: Zebrafish mRNA microinjection, rescue of sef expression, dusp5; format: in vivo; settings: 5 μM BCI, shield stage
# Description: dusp6 and XFD mRNA for microinjection studies were generated as previously described (Tsang, M. et al. Development 131, 2769-79 (2004)). Both Dusp5 and Spry4 ORFs were amplified by RT-PCR from 24 hpf zebrafish with the following primers: […]
# Amplified PCR products were subcloned into pCS2+, sequenced verified and mRNAs were synthesized as described previously. Embryos were injected with 500 pg mRNA at the 1-2 cell stage, treated with 5 μM BCI at the 1000-cell stage and fixed at shield stage for in situ hybridization.
# In situ hybridization experiments were carried out as described previously (Kudoh, T. et al. Genome Res 11, 1979-87 (2001)). The probes eng3, krox20, sef, dusp6, gata4, nkx2.5, cmlc2, vmhc, scl, etsrp and hand2 were generated with a RNA labeling kit (Roche) (Tsang, M. et al. Development 131, 2769-79 (2004); Chen, J. N. et al. Development 122, 3809-16 (1996); Ekker, M., et al. Development 116, 1001-10 (1992); Liao, E. C. et al. Genes Dev 12, 621-6 (1998); Oxtoby, E. et al. Nucleic Acids Res 21, 1087-95 (1993); Pham, V. N. et al. Dev Biol 303, 772-83 (2007); Tsang, M., et al. Nat Cell Biol 4, 165-9 (2002); Yelon, D., et al. Dev Biol 214, 23-37 (1999); and Yelon, D. et al. Development 127, 2573-82 (2000)). The double fluorescent in situ hybridization protocol was described by Schoenbeck et al. (Dev Cell 13, 254-67 (2007)). […]
# zebrafish embryo = assay: Zebrafish embryo survival after prolonged exposure; format: in vivo
# Description: We next addressed if BCI and related analogs are detrimental to zebrafish embryo survival after prolong exposure. […] The percentage of embryos that died after 24 hours treatment was 100% at 20 μM.
structure (smiles),measurement,setting,value
"O=C1/C(=C/c2ccccc2)C(NC2CCCCC2)c2ccccc21 (stereo not shown) [Compound 3, (E)-2-benzylidene-3-(cyclohexylamino)-2,3-dihydro-1H-inden-1-one]",inhibition of basal Dusp6 activity toward OMFP,Dusp6,did not inhibit basal Dusp6 activity
same,reversal of phenotype caused by Dusp5 over-expression,Dusp5,little or no effect
same,percentage of embryos that died after 24 hours treatment,"zebrafish embryo; 20 μM, 24 hours",100%
same,effect of prolonged exposure on embryos,zebrafish embryo; high doses (>10 μM) for 24 hours,"embryo defects, such as tail necrosis and even death"
